This is an account of results in patent US20170121295A1, “POLYCYCLIC LPA1 ANTAGONIST AND USES THEREOF” (AMIRA PHARMACEUTICALS, INC., priority 2010, published 2017).

The target in one data set is T1, Human LPA3 (Homo sapiens, UniProt Q9UBY5).
T1 construct: The full-length cDNA fragment for human LPA3 was obtained by PCR from the vector
T1 sequence (Q9UBY5 1-353): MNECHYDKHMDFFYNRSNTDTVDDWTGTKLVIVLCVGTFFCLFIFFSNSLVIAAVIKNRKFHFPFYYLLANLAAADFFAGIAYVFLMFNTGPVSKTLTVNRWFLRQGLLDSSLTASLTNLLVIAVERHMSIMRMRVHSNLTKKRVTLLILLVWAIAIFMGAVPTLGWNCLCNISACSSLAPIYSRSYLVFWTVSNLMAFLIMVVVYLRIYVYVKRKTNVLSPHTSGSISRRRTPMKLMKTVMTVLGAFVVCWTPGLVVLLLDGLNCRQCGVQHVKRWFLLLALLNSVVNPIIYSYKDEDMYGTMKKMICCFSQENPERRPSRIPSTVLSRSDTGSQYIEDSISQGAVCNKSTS
The experiment in a line: LPA3 Calcium Flux Assay. The format is cell-based. As to conditions: human LPA3 expressing CHO cells, 10 nM LPA; read-out: Ca Flux IC50 LPA3. The protocol:
A vector containing the human LPA3 receptor cDNA was obtained from the Missouri S&T cDNA Resource Center (www.cdna.org). The full-length cDNA fragment for human LPA3 was obtained by PCR from the vector. The nucleotide sequence of the cloned human LPA3 was determined by sequencing and confirmed to be identical to the published human LPA3 sequence (NCBI accession number NM_012152). The cDNA was cloned into the pCDNA5/FRT expression plasmid and transfected in CHO cells using lipofectamine 2000 (Invitrogen Corp., USA). Clones stably expressing human LPA3 were selected using hygromycin and identified as cells that show Ca-influx in response to LPA.
(§1) Human LPA1 or LPA3 expressing CHO cells are seeded at 20,000-45,000 cells per well in a 96-well poly-D-lysine coated plate one or two days before the assay. Prior to the assay, the cells are washed once with PBS and then cultured in serum-free media overnight. On the day of the assay, a calcium indicator dye (Calcium 4, Molecular Devices) in assay buffer (HBSS with Ca^2+ and Mg^2+ and containing 20 mM Hepes and 0.3% fatty-acid free human serum albumin) is added to each well and incubation continued for 1 hour at 37° C. 10 μl of test compound in 2.5% DMSO are added to the cells and incubation continued at room temperature for 30 minutes. Cells are the stimulated by the addition of 10 nM LPA and intracellular Ca^2+ measured using the Flexstation 3 (Molecular Devices). IC50s are determined using Graphpad prism analysis of drug titration curves.
A general note: Calcium assays in cells follow changes in intracellular calcium, usually with a dye or a luminescent sensor.

The target in a further data set is T2, Human LPA1 (Homo sapiens, UniProt Q92633).
T2 construct: the full-length cDNA for human LPA1 was obtained by PCR of the reverse transcription reaction; expressed in transfected cells
T2 sequence (Q92633 whole entry): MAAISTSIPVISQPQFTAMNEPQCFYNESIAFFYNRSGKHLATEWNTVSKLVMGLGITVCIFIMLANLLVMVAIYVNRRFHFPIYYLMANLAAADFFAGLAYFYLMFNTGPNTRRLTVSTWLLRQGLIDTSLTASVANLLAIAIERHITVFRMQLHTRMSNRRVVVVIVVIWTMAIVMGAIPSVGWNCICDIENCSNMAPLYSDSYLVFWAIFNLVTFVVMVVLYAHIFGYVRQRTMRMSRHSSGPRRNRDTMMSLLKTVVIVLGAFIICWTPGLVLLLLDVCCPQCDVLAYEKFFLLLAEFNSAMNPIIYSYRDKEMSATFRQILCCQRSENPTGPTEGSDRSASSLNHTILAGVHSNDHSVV
The data set is described as follows: LPA1 Calcium Flux Assay. Type of data set: cell-based. As to conditions: human LPA1 expressing CHO cells, 10 nM LPA; read-out: Ca Flux IC50 LPA1. The protocol: A 1.1 kb cDNA encoding the human LPA1 receptor was cloned from human lung. Human lung RNA (Clontech Laboratories, Inc. USA) was reverse transcribed using the RETROscript kit (Ambion, Inc.) and the full-length cDNA for human LPA1 was obtained by PCR of the reverse transcription reaction. The nucleotide sequence of the cloned human LPA1 was determined by sequencing and confirmed to be identical to the published human LPA1 sequence (An et al. Biochem. Biophys. Res. Commun. 231:619 (1997). The cDNA was cloned into the pCDNA5/FRT expression plasmid and transfected in CHO cells using lipofectamine 2000 (Invitrogen Corp., USA). Clones stably expressing human LPA1 were selected using hygromycin and identified as cells that show Ca-influx in response to LPA.
as §1

The nature of data set [1]: Pharmacokinetics in Sprague-Dawley Rats. The format is in vivo. As to conditions: for half-life: Sprague-Dawley, rat, plasma; for dose normalized exposure: oral, 10 mg/kg. As for the experimental part: The pharmacokinetics of Compound 1 and Compound 2 was assessed in male and female Sprague-Dawley rats (225-300 g at 10 weeks).
Compound 2 (1 mg/kg) was administered intravenously (IV) to fasted rats (n=3) as a solution in purified water via a bolus injection into the jugular vein (1 mg/mL; 1 mL/kg). Compound 1 (10 mg/kg) was administered orally (PO), to fasted (for at least 12 hours) or non-fasted rats (n=2 or 3) as a solution in 0.5% methylcellulose unless otherwise noted via an oral gavage to the stomach (3.33 mg/mL; 3 mL/kg). Non-fasted animals were fasted for at least 12 hours and then were given food ad libitum for 1 hour prior to dosing. Fasted animals were dosed 1, 10, 30, 100 or 300 mg/kg Compound 1 as a solution in 0.5% methylcellulose via an oral gavage to the stomach (0.69 mg/mL, 10 mg/mL, 33.3 mg/mL or 100 mg/mL) (n=2 or 3 per dose group). In a gastrointestinal study, rats were anesthetized and Compound 1 was administered directly to the duodenum, jcjunum or ilcum at 1 mg/kg in 0.5% methylcellulose.
Capsules were also administered with Compound 2. Capsules were size 9 gelatin (Torpac, San Diego, Calif.).
Blood samples (approximately 300 μL total blood) were taken from each rat via the jugular vein cannula at pre-dose, and an initial time of 5 or 15 min and then various time points up to 24 hours post-dose (10-11 samples per animal). Samples were collected on wet ice in tubes containing potassium EDTA. After each blood draw, the cannula was flushed with an equivalent volume of heparinized saline (0.1 mL at 40 units/mL). Plasma samples, prepared by centrifugation of whole blood, were stored frozen (−80° C.) prior to analysis.

A short description of data set [2]: Thermodynamic aqueous solubility. The format is physicochemical. As to conditions: water, 25 °C, thermodynamic from solid, equilibrated at 25° C. for 24 hours, read-out: Solubility (mg/ml, free form equivalent). The protocol:
Aqueous solubility was determined by suspending sufficient compound in water to give a maximum final concentration of ≧10 mg·ml−1 of the parent free-form of the compound. The suspension was equilibrated at 25° C. for 24 hours then the pH was measured. The suspension was then filtered through a glass fiber C filter into a 96 well plate unless stated otherwise. The filtrate was then diluted by a factor of 101. Quantification was by HPLC with reference to a standard solution of approximately 0.25 mg·ml^−1 in DMSO. Different volumes of the standard, diluted and undiluted sample solutions were injected. The solubility was calculated using the peak areas determined by integration of the peak found at the same retention time as the principal peak in the standard injection.
Analysis was performed on an Agilent HP1100 series system equipped with a diode array detector and using ChemStation software vB.02.01-SR1.

Data set [3] in a line: Pharmacokinetics in Male Beagle Dogs. As to conditions: for bioavailability: po, 5 mg/kg, read-out: apparent oral bioavailability. Type of data set: in vivo. As for the experimental part: The pharmacokinetics of Compound 1 and Compound 2 was assessed in male Beagle dogs.
Dosing of male Beagle dogs (n=3) was performed. Compound 1 or Compound 2 was dosed intravenously at 2 mg/kg (fasted) and orally (fasted or non-fasted) at 5 mg/kg. In fasted animals, food was withheld a minimum of 12 hours prior to dosing and then returned 4 hours post-dose. Non-fasted animals were allowed to feed 1 hour prior to dosing ad libitum. Compound 2 capsules were given by oral gavage in the fasted state. Plasma samples were collected by Perry Scientific study personnel.
The capsules are noted in Table 25 below. Capsules were size 0 gelatin (Capsugel, Peapack, N.J.). Tablet formulations are noted in Example 24.
For the clinical drug product oral solution of active agent (1.67 mg/mL), sucralose (0.5% w/w) and cherry flavor (0.5% w/w) is added to the formulation as a sweetener and taste masking agent, respectively to a 0.5% methocel aqueous solution.
Blood samples (approximately 1 mL total blood) were taken from each dog at pre-dose, and an initial time of 5 or 15 min and then various time points up to 24 hours post-dose (10-11 samples per animal). Samples were collected on wet ice in tubes containing potassium EDTA. After each blood draw, the cannula was flushed with an equivalent volume of heparinized saline (0.1 mL at 40 units/mL). Plasma samples, prepared by centrifugation of whole blood, were stored frozen (−80° C.) prior to analysis.

The next data set has as its system renal fibrosis. As to conditions: compared with LPA1 (−/−) mice; cited from earlier work.
The test system of data set [4] is pancreatic cancer cell lines. As to conditions: in response to LPA and peritoneal fluid (ascites) from pancreatic cancer patients; cited from earlier work.
Data set [5] deals with highly peritoneal metastatic pancreatic cancer cell line. As to conditions: LPA-induced and ascites-induced; cited from earlier work.
Setting [6] is: male, Beagle, dog, plasma, oral 5 mg/kg, fasted state.

The structures appear in SMILES notation. Read-outs that look alike come from different tables or passages of the source.

As usually defined, the IC50 is the midpoint of a concentration-inhibition curve. Turning to `Cc1noc(-c2ccc(-c3ccc(C4(C(=O)O)CC4)cc3)cc2)c1NC(=O)OC(C)c1ccccc1` (racemic) [Racemic Compound 1], the values for the IC50 at Human LPA3 and on Human LPA1 were > 1000 nM and < 200 nM, respectively.

Broadly, the half-life is how long it takes for the measured level to halve. For orientation: bioavailability means the share of a dose that reaches the circulation, judged against a reference dose that is usually intravenous. One may read the clearance as a measure of how efficiently the substance is removed, as volume per time. In general, Cmax refers to the maximum level reached in the sampled fluid or tissue. Regarding `Cc1noc(-c2ccc(-c3ccc(C4(C(=O)[O-])CC4)cc3)cc2)c1NC(=O)O[C@H](C)c1ccccc1.[Na+]` [Compound 2, 1-{4′-[3-methyl-4-((R)-1-phenyl-ethoxycarbonylamino)-isoxazol-5-yl]-biphenyl-4-yl}-cyclopropanecarboxylic acid, sodium salt], the volume of distribution result in data set [1] (IV 1 mg/kg) is on record as “approximately two-fold total body water”. Further, the half-life was 192 min in data set [1] (female, IV 1 mg/kg, females); 228 min in data set [1] (male, IV 1 mg/kg, males); 234 min in data set [3] (male, Beagle, dog, plasma, IV 2 mg/kg, read-out: terminal half-life (converted)). Moreover, the dose normalized exposure in data set [1] was 2.4 µg·h/mL; in data set [1] (in a gelatin capsule) it was 2.1 µg·h/mL. Further, the solubility at 24 h in data set [2] is ≥ 10 mg/mL. For the same compound, the “effect of food on absorption” value in data set [3] (dog, fasted vs fed) is recorded as “food has little effect on the absorption”. The “decrease of AUC” value in data set [3] (dosed as a capsule form, fasted) was 2.5 fold. The bioavailability in data set [3] (male, Beagle, dog, plasma, dosed as a capsule form, fasted) was determined as 24%; in data set [3] (male, Beagle, dog, plasma, human dose solution), 57%; in data set [3] (setting [6]), 63%; in data set [3] (male, Beagle, dog, plasma, oral 5 mg/kg, fed state), 60%; in data set [3] (male, Beagle, dog, plasma, tablet formulation (first of two)) it was 100%; in data set [3] (male, Beagle, dog, plasma, tablet formulation (second of two)) it was 52%. For the same compound, the Vd in data set [3] (male, Beagle, dog, plasma, IV 2 mg/kg, read-out: estimated volume of distribution) was 0.6 L/kg. Besides, the clearance in data set [3] (male, Beagle, dog, plasma, IV 2 mg/kg, read-out: systemic clearance) came out at 10.5 mL/min/kg. This compound also yielded a Cmax in data set [3] (setting [6]) of 5500 ng/mL.

With `Cc1noc(-c2ccc(CSCCC(=O)O)cc2)c1NC(=O)OC(C)c1ccccc1Cl` (stereo not shown) [Ki16425], the “development of renal fibrosis in UUO mice” value in the data set with renal fibrosis is “closely resembled the LPA1 (−/−) mice”. Besides, the in vitro migration result in data set [4] is “effectively blocked”. Also, the invasion activity result in data set [5] was “blocked”.

For `Cc1noc(-c2ccc(-c3ccc(C4(C(=O)O)CC4)cc3)cc2)c1NC(=O)O[C@@H](C)c1ccccc1` [S-enantiomer of Compound 1], the results for the IC50 at Human LPA3 and on Human LPA1 were > 1000 nM and < 200 nM, respectively.
